Tests used:
[1] = Maximum bronchodilator reversibility test (MBRT); assay type: in vivo, human
Protocol: (§1) Treatment response to bronchodilators and systemic corticosteroids: Maximum Bronchodilator Reversibility tests (MBRT's) were performed on baseline visits 2 and 3. MBRT was determined by measuring spirometry before and after 360-720 meg of albuterol sulfate delivered by metered-dose inhaler. Patients also underwent a systemic corticosteroid response test (SCRT), which involved an intramuscular injection of triamcinolone acetonide (40 mg) on visit 2 and repeat characterization including MBRT and blood draw on visit 3 (2-4 weeks later). Maximum bronchodilator reversibility test (MBRT): Subjects were asked to hold their bronchodilator medications prior to spirometry testing. Following baseline spirometry, 4 puffs of albuterol (360 mcg) were administered. Spirometry was then repeated 15 minutes later. If the change in FEV1 from the spirometry maneuver performed after 4 puffs was greater than 5%, an additional 2 puffs of albuterol (180 mcg) were then administered and spirometry was repeated again 15 minutes later. If the change in FEV1 after 6 puffs was greater than 5%, an additional 2 puffs of albuterol were administered with repeat spirometry after an additional 15 minutes. If the change was less than 5% after 4 or 6 puffs of albuterol, the procedure was stopped and the last maneuver was taken to be the highest achievable measure. No more than 8 puffs of albuterol were administered as part of the MBRT procedure. MBRT was measured on baseline visits 2 and 3 (FIG. 5).

[2] = Systemic corticosteroid responsiveness test (SCRT); assay type: in vivo, human
Protocol: Systemic Corticosteroid Responsiveness Test (SCRT): Patients were given an intramuscular injection of triamcinolone acetonide (40 mg) following complete characterization on visit 2. Repeat characterization post steroid injection (excluding MDCT), was carried out on visit 3 (2-4 weeks later) (FIG. 5). Treatment response to bronchodilators and systemic corticosteroids: Maximum Bronchodilator Reversibility tests (MBRT's) were performed on baseline visits 2 and 3. MBRT was determined by measuring spirometry before and after 360-720 meg of albuterol sulfate delivered by metered-dose inhaler. Patients also underwent a systemic corticosteroid response test (SCRT), which involved an intramuscular injection of triamcinolone acetonide (40 mg) on visit 2 and repeat characterization including MBRT and blood draw on visit 3 (2-4 weeks later). Induced Sputum: Sputum induction was done on visits 2 and 3. For safety, induced sputum was only collected from patients whose FEV1 was >50% predicted after albuterol pretreatment (360 μg). Total and differential cell counts were quantified in a central laboratory (Wake Forest University) using methods previously described^5,6. Gene expression for type 2 cytokines [interleukin (IL)-4, IL-5, and IL-13] and for airway gel-forming mucins (MUC5AC, MUC5B) were measured in RNA isolated from induced sputum cell pellets using real-time Taqman-based quantitative PCR (qPCR) 7 as described herein (including Table 3). RNA isolation and qPCR were done in a central laboratory (University of California at San Francisco).

[3] = Bronchodilator reversibility testing repeated after intramuscular corticosteroid (combined SCRT and MBRT); assay type: in vivo, human; conditions: patients with high mucus scores; bronchodilator reversibility testing repeated after intramuscular steroid
Protocol: as §1, with “Systemic Corticosteroid Responsiveness Test (SCRT): Patients were given an intramuscular injection of triamcinolone acetonide (40 mg) following complete characterization on visit 2. Repeat characterization post steroid injection (excluding MDCT), was carried out on visit 3 (2-4 weeks later) (FIG. 5). Treatment” for “Treatment”, “If the change in FEV1 after 6 puffs was greater than 5%, an additional 2 puffs of albuterol were administered with repeat spirometry after an additional 15 minutes. If the change was less than 5% after 4 or 6 puffs of albuterol, the procedure was stopped and the last maneuver was taken to be the highest achievable measure. No more than 8 puffs of albuterol were administered as part of the MBRT procedure.” left out

[4] = system: primary human airway epithelial cells; assay: Apical secretion of Eotaxin-3 (CCL26) at air liquid interface; assay type: cell-based; conditions: 10 ng/ml in basolateral media for 4 days; vs untreated control (FIG. 11E)
From the text: Apical secretion of Eotaxin-3 (CCL26): Human airway epithelial cells (AECs) were isolated from tracheas collected from cadaveric lung donors from the California Donor Network as a part of a separate study (Gordon et al., Proc Natl Acad Sci USA. 113, 8765-8770. doi: 8710.1073/pnas.1601914113. Epub 160191216 Jul. 1601914118. (2016)). Cells were expanded in 5% FCS in DMEM/F12 supplemented with a rho kinase inhibitor (Y-27632 SellekChem) to promote proliferation (Liu et al., Am J Pathol. 180, 599-607. doi: 510.1016/j.ajpath.2011.1010.1036. Epub 211 Dec. 1018. (2012)). Once cells reached 90% confluency flasks were washed and cells trypsinized with TrypLE (Gibco). Subconfluent cells were plated to submerged transwell inserts, using the modified Schlegel culture conditions previously described (Chu et al., Gene Ther. 22, 822-829. doi: 810.1038/gt.2015.1053. Epub 2015 July 1032. (2015)). Once cells reached confluence, the cultures were taken to air-liquid interface (ALI) in PnuemaCult Maintenance media (StemCell Technologies) and maintained for 21-days. At day 21, cells were treated with 10 ng/ml recombinant human IL-13 (R&D systems) in the basolateral media for 4 days. To measure eotaxins secreted at the apical surface of ALI cultures. 300 μL warmed PBS was added to the surface of the cells. […]

eosinophils = assay: Cysteine cross-linking assay (BODIPY labeled cysteine exposed to eosinophils); assay type: cell-based, human; conditions: unstimulated and PMA-stimulated eosinophils; vs catalase-free control (FIG. 11H)
Protocol: Eosinophil Isolation and stimulation of respiratory burst: Eosinophils were purified from the peripheral blood of 4 atopic asthmatic subjects (age 48±23 years). Each subject donated 100 mL of blood on one or more occasions. All subjects signed consent forms and usage was approved by the UCSF Committee on Human Research. Eosinophils were isolated from whole blood using a three-step method in which we first pelleted the cells, followed by water lysis to remove red blood cells and finally eosinophils were purified using immunomagnetic beads (Human Eosinophil Isolation kit. Miltenyi Biotec). Briefly, whole blood was collected in EDTA (purple-top) tubs and pelleted at 1500 g for 15 minutes at 4° C. The plasma on top was removed and cell pellet retained for two cycles of water lysis. […]
Cysteine cross-linking assay: To explore cystine formation generated by eosinophil stimulation, BODIPY FL L-cysteine was generated from […] BODIPY FL L-Cystine (ThermoFisher Scientific) in Tyrode's Salts by reduction with one quarter volume packed TCEP-Gel (ThermoFisher Scientific) for 1 hour at 25° C. The reaction yields an 8 to 10-fold increase in fluorescence at 490 nm/520 nm Ex/Em. […] The decrease in fluorescence at 490 nm/520 nm Ex/Em was monitored over 2 hours at 37° C. on a Synergy H1 plate reader (BioTek Instruments) with the addition of 50,000 peripheral blood eosinophils in 100 μl Tyrode's Salts. […]

CC(C)(C)NCC(O)c1ccc(O)c(CO)c1 (stereo not shown) [albuterol]
patients with residual abnormalities in FEV1 (FEV1 <80% predicted) following maximum bronchodilator testing ([1]; asthma patients with a high mucus score): 73% | patients with residual FEV1 abnormalities after maximum bronchodilation testing ([1]; asthma patients with a zero-mucus score): 20% | mean post-bronchodilator FEV1 in the high mucus group lower than in the zero-mucus group ([1]; asthma patients, inhaled albuterol (540-720 mcg), high vs zero mucus group): 24%

CC1(C)O[C@@H]2C[C@H]3[C@@H]4CCC5=CC(=O)C=C[C@]5(C)[C@@]4(F)[C@@H](O)C[C@]3(C)[C@]2(C(=O)CO)O1 [triamcinolone acetonide]
patients with residual abnormalities in FEV1 following the SCRT ([2]; asthma patients with high mucus scores, intramuscular 40 mg): 72% | patients with residual FEV1 abnormalities following the SCRT ([2]; asthma patients with zero mucus scores, intramuscular 40 mg): 28% | mean post steroid FEV1 lower in the high-mucus group than the zero-mucus group ([2]; asthma patients, intramuscular 40 mg, high vs zero mucus group): 21% | Sputum eosinophil % following treatment with intramuscular steroid ([2]; patients with a high mucus score (FIG. 10A)): remains significantly increased | Gene expression for interleukin 13 in sputum cells following treatment with intramuscular steroid ([2]; patients with a high mucus score (FIG. 10B)): remains significantly increased | Gene expression for interleukin 5 in sputum cells following treatment with intramuscular steroid ([2]; patients with a high mucus score (FIG. 10C)): remains significantly increased | FEV1% predicted post steroid treatment ([2]; subjects with a high mucus score (FIG. 4B)): remained significantly decreased | proportion of patients whose FEV1 remained below 80% [3]: half

IL-13: recombinant human IL-13 (R&D systems) used to stimulate airway epithelial cells
concentration of eotaxin-3 in apical mucus secretions [4]: marked increases

catalase
cystine dimer formation (eosinophils): significantly decreased

Source: patent publication US12533095B1, “Airway mucus scoring system” (The Regents of the University of California, priority 2016, dated 2026)
